# Reference: patent US20230074252A1, “DOSAGES AND METHODS FOR TREATING PULMONARY ARTERIAL HYPERTENSION WITH RODATRISTAT” (Altavant Sciences GmbH, priority 2020, published 2023)
# Key:
# CYP2B6 [1] = biological target: T1, CYP2B6 (Homo sapiens, UniProt P20813); test: In vitro CYP substrate assessment (victim potential); format: in vitro ADME
# T1 sequence (P20813 1-491): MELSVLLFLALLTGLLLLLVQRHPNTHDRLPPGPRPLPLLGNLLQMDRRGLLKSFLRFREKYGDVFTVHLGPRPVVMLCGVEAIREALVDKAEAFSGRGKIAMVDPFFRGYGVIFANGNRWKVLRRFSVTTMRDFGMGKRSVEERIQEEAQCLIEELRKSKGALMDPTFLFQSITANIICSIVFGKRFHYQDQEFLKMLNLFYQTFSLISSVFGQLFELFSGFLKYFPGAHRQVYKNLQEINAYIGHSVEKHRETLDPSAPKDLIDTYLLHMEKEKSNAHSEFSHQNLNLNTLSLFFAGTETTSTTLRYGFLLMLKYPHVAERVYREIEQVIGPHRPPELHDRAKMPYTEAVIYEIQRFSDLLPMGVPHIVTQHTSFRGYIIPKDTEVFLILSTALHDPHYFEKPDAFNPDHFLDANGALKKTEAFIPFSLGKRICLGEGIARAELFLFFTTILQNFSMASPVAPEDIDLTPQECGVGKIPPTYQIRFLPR
# CYP3A4 = CYP3A4 (Homo sapiens, UniProt P08684); test: as above; format: in vitro ADME
# CYP3A4, sequence (P08684 whole entry): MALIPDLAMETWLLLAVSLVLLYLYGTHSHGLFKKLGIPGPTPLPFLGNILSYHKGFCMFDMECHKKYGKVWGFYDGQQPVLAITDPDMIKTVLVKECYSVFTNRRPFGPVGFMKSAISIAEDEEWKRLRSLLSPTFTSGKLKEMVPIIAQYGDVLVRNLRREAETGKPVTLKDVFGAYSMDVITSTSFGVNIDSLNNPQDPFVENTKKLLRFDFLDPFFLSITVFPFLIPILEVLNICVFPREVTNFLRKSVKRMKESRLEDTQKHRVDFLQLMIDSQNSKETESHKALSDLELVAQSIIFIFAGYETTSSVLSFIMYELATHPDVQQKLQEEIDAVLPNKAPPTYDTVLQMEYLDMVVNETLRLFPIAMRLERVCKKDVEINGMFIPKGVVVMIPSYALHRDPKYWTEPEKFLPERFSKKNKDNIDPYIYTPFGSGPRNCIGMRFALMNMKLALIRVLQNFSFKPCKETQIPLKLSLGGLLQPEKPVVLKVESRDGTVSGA
# OATP1B3 = biological target: T2, OATP1B3 (Homo sapiens, UniProt Q9NPD5); test: In vitro transporter substrate assessment; format: in vitro ADME
# T2 construct: expressed in transfected cells; host or cells: HEK293
# T2 sequence (Q9NPD5 1-702): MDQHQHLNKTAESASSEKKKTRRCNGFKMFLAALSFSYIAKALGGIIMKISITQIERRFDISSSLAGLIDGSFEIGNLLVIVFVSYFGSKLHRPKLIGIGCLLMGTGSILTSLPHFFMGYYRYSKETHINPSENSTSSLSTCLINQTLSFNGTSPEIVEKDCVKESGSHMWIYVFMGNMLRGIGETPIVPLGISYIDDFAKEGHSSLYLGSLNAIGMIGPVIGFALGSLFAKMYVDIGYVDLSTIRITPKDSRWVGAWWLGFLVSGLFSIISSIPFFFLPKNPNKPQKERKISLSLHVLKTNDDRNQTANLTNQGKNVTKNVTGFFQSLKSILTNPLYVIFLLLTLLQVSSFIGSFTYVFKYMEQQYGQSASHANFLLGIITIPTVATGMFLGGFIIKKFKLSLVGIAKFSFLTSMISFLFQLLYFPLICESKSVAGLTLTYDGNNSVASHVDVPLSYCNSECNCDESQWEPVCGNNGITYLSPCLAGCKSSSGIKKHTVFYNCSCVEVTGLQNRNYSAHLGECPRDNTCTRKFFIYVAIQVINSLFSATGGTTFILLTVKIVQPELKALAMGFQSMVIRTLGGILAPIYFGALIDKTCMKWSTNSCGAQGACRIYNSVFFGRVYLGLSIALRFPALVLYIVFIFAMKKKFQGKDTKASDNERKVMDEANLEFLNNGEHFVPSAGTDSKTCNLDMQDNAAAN
# From the text: Consequently, the elimination of rodatristat into bile may be impacted by co-administration with agents that are BCRP inhibitors.
# CYP2B6 [2] = biological target: T1, CYP2B6; test: FDA guidance DDI risk assessment, perpetrator potential; parameters: from tissue; host or cells: pooled human liver microsomes (n=200 donors); details: predicted @ 600 mg BID
# Experimental: (§1) The potential for rodatristat ethyl or rodatristat to be perpetrators of drug-drug interactions was assessed across in vitro CYP and transporter studies (Tables 1-4). […] This analysis was performed to assess the potential for clinically meaningful DDIs as recommended in FDA Draft Guidance: “In Vitro Metabolism- and Transporter-Mediated Drug-Drug Interaction Studies Guidance for Industry”; October 2017 (FDA, 2017).
# (§2) R1 and R3 values using free (non-protein bound) drug levels were calculated based on plasma protein binding (fraction bound, fb) of rodatristat ethyl (0.995) and rodatristat (0.991). The FDA Guidance is set forth In Vitro Metabolism- and Transporter-Mediated Drug-Drug Interaction Studies Guidance for Industry (2017). […] Parameters for the prediction are set forth below in Tables 5 and 6.
# CYP2C19 = CYP2C19 (Homo sapiens, UniProt P33261); test: as above; parameters: from tissue; host or cells: pooled human liver microsomes (n=200 donors); details: predicted @ 600 mg BID
# CYP2C19, sequence (P33261 whole entry): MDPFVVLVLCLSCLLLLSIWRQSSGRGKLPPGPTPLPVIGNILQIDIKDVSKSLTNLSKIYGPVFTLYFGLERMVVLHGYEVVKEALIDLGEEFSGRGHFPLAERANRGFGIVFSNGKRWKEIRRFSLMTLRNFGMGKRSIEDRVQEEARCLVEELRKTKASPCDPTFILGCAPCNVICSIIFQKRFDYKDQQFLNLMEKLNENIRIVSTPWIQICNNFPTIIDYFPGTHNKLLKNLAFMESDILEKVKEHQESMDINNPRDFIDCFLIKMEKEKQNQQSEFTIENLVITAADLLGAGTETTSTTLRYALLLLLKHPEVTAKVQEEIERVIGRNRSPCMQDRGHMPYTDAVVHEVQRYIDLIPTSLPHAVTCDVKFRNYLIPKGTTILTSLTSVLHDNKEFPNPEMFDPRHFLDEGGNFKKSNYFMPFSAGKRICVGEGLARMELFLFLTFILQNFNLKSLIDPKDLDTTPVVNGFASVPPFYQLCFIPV
# Experimental: as §1, §2
# CYP2C8 = biological target: T3, CYP2C8 (Homo sapiens, UniProt P10632); test: as above; parameters: from tissue; host or cells: pooled human liver microsomes (n=200 donors); details: for Potential for interaction (perpetrator), CYP2C8: predicted @ 600 mg BID
# T3 sequence (P10632 1-490): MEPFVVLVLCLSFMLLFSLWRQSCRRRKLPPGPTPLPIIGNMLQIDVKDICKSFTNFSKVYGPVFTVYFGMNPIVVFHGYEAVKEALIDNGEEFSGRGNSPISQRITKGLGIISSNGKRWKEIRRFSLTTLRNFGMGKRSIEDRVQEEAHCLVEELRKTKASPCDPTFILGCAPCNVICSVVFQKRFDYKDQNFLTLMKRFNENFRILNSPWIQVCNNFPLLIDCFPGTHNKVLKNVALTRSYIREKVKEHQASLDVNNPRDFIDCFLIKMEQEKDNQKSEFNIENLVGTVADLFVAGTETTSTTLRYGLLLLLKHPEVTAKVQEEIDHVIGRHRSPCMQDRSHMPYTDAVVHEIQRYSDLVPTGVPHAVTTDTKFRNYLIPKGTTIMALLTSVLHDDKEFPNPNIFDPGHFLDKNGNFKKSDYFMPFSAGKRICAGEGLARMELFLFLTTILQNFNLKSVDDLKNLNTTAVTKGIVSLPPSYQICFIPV
# Experimental: as §1, §2
# CYP2C9 = CYP2C9 (Homo sapiens, UniProt P11712); test: as above; parameters: from tissue; host or cells: pooled human liver microsomes (n=200 donors); details: predicted @ 600 mg BID
# CYP2C9, sequence (P11712 whole entry): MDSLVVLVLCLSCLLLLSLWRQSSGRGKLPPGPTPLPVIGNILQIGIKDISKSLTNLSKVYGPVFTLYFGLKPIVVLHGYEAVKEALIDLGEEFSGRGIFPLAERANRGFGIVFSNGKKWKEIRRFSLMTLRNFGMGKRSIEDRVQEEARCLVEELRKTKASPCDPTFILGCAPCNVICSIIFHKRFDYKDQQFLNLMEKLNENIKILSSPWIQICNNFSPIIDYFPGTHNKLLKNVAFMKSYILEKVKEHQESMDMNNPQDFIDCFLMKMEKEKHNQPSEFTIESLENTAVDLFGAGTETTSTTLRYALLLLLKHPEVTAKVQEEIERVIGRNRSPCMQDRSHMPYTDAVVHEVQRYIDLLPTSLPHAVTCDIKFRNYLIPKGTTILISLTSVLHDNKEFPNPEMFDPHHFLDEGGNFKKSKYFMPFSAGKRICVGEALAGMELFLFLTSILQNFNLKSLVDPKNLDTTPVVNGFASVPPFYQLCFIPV
# Experimental: as §1, §2
# CYP2D6 = CYP2D6 (Homo sapiens, UniProt P10635); test: as above; parameters: from tissue; host or cells: pooled human liver microsomes (n=200 donors); details: predicted @ 600 mg BID
# CYP2D6, sequence (P10635 whole entry): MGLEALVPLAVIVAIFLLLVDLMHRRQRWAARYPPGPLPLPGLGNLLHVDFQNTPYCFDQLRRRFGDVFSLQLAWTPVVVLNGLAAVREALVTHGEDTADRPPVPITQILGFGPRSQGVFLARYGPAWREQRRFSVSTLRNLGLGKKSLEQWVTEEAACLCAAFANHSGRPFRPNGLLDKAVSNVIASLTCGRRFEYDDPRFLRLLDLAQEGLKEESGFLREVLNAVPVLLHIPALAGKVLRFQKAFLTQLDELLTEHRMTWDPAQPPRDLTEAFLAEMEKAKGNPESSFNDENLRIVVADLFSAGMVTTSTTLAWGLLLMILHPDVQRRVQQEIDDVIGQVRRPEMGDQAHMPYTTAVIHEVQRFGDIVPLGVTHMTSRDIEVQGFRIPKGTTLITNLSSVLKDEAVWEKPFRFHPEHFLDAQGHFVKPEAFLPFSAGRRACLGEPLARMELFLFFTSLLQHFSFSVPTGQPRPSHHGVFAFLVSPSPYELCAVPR
# Experimental: as §1, §2
In vitro substrate? CYP2B6 (CYP2B6 [1]),In vitro substrate? CYP3A4 (CYP3A4),In vitro substrate? OATP1B3 (OATP1B3),"Potential for interaction (perpetrator), CYP2B6 (CYP2B6 [2])","Potential for interaction (perpetrator), CYP2C19 (CYP2C19)","Potential for interaction (perpetrator), CYP2C8 (CYP2C8)","Potential for interaction (perpetrator), CYP2C9 (CYP2C9)","Potential for interaction (perpetrator), CYP2D6 (CYP2D6)",Accumulation by OATP1B3 uptake transporter (OATP1B3; 3 μM),"Ratio of unbound Cmax to Ki, CYP2C8 (CYP2C8; 600 mg BID)",SMILES
No,No,not a substrate and No,Yes,No,No,No,No,,,"CCOC(=O)[C@@H]1CC2(CCN(c3cc(O[C@H](c4ccc(Cl)cc4-c4ccccc4)C(F)(F)F)nc(N)n3)CC2)CN1 [Rodatristat ethyl, (S)-ethyl 8-(2-amino-6-((R)-1-(5-chloro-[1,1′-biphenyl]-2-yl)-2,2,2-trifluoroethoxy)pyrimidin-4-yl)-2,8-diazaspiro[4.5]decane-3-carboxylate]"
No,No,is an in vitro substrate and Yes,Yes,No,No,No,No,9.28 fold,0.014,"Nc1nc(O[C@H](c2ccc(Cl)cc2-c2ccccc2)C(F)(F)F)cc(N2CCC3(CC2)CN[C@H](C(=O)O)C3)n1 [Rodatristat, (S)-8-(2-amino-6-((R)-1-(5-chloro-[1,1′-biphenyl]-2-yl)-2,2,2-trifluoroeth-oxy)pyrimidin-4-yl)-2,8-diazaspiro[4.5]decane-3-carboxylic acid]"
